Legend:
[1] = tested on: HEK293 cells overexpressing hTau (WT) and p300; experiment: Ac-tau and p-tau Western blot in HEK293 cells treated with salicylate; type: cell-based, human; conditions: 0, 5, 10 mM salicylate for 24 hr
Method: To examine the effects of salicylate treatment on tau acetylation and phosphorylation, HEK293 cells overexpressing hTau (WT) and p300 were treated with sodium salicylate (SS).
FIGS. 1A-1D. Salicylate inhibits p300 and reduces ac-tau and p-tau in vitro (FIG. 1A) HEK293 cells overexpressing wild-type human tau were treated with 0, 5, 10 mM salicylate for 24 hr. Representative Western blot of four experiments. (FIG. 1B) Quantification of ac-tau and p-tau levels in HEK293 cells treated with salicylate. ac-tau/t-tau, p-tau/t-tau in non-treated cells were set as 1. n=4. **, p<0.01, ***, p<0.001 (two-tails unpaired t-test). Error bar, S.E.M. (FIG. 1C) Rat primary cortical neurons infected with lenti-hTau (WT) were treated with 0, 5, or 10 mM salicylate for 24 hr. Representative Western blot of four experiments. (FIG. 1D) Quantification of ac-tau, p-tau and p300 levels in primary neurons treated with salicylate. ac-tau/t-tau, p-tau/t-tau and p300/GAPDH in non-treated cells were set as 1. n=4. *, p<0.05, **, p<0.01, ***, p<0.001 (two-tails unpaired t-test). Error bar, S.E.M.

[2] = tested on: primary neurons, K174Q tau; experiment: Tau-lowering effect of salicylate on K174Q mutant tau in primary neurons; type: cell-based; conditions: K174 mutated to glutamine
[3] = molecular target: p300 (Homo sapiens, UniProt Q09472); conditions: recently identified; cited from earlier work
Sequence of p300 (Q09472 whole entry, species assumed): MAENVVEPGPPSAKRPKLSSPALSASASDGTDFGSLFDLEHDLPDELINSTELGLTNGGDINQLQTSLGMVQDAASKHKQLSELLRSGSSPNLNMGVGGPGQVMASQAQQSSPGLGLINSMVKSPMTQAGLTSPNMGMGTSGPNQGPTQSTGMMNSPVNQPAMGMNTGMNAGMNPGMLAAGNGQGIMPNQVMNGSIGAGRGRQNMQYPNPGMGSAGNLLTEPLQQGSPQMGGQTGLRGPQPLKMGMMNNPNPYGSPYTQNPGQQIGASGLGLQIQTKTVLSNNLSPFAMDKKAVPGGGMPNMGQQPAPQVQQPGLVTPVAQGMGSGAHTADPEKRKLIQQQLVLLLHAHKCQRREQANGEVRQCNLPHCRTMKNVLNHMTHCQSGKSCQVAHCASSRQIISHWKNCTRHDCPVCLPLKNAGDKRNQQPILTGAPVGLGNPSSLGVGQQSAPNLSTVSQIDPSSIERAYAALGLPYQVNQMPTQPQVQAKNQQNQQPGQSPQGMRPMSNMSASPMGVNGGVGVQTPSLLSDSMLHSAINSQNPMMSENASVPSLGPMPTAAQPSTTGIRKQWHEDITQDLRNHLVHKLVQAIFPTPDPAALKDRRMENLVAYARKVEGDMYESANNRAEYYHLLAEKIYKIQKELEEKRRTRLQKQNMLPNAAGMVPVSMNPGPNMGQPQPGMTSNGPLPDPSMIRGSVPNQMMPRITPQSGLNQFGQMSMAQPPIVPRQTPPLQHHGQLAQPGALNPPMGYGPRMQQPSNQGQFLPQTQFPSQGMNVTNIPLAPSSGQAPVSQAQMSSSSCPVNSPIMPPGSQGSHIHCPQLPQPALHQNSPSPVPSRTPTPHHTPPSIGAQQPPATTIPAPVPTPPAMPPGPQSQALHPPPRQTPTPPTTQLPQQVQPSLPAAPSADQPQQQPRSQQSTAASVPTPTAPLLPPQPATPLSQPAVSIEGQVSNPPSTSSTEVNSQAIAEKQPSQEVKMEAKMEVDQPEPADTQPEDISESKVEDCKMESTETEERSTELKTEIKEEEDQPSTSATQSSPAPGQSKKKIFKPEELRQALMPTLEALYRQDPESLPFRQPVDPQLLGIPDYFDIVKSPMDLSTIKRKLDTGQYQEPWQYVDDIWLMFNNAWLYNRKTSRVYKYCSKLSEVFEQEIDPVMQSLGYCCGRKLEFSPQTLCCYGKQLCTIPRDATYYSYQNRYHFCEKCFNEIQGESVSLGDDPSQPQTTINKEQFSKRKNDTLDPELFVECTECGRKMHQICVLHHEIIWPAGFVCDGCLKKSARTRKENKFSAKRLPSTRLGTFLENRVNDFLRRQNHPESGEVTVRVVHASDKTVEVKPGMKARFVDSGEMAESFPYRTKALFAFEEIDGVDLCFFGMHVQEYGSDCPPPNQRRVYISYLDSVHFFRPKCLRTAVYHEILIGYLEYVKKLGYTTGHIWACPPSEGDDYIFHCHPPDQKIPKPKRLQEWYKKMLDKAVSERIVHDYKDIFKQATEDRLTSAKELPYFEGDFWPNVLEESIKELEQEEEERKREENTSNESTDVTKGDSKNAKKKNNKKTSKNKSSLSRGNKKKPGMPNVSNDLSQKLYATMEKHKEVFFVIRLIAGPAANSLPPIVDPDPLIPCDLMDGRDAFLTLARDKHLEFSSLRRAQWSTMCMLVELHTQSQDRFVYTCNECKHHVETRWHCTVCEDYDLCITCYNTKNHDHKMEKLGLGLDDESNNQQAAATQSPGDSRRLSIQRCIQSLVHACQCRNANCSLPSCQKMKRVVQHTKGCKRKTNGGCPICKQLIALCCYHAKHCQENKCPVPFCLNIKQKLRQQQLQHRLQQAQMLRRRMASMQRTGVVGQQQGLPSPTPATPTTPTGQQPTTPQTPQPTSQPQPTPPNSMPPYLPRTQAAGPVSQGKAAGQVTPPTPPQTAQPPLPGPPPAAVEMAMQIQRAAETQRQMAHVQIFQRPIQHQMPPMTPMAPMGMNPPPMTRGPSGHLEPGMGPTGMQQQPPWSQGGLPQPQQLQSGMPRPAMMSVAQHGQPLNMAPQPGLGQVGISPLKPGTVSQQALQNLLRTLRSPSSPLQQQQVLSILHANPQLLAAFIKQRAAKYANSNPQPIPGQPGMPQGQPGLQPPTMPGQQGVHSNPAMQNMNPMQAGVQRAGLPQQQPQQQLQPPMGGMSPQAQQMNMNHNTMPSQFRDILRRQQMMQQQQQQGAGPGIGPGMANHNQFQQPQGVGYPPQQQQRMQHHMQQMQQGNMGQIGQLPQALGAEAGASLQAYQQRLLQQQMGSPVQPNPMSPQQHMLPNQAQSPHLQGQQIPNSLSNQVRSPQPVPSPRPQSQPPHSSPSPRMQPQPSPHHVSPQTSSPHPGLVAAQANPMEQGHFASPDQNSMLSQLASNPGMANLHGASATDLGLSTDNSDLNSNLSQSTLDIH

[4] = tested on: PS19 mice; experiment: Fixed Location Dry Maze; type: in vivo, mouse; conditions: 225 mg/kg oral gavage for 8 weeks; 7-8 month old PS19 mice
Method: For SSA treatment experiments, only female PS19 mice obtained from Jackson Laboratory were used. The mice were housed in a conventional facility at Stanford University (Palo Alto, Calif.<USA) with a 12-h light/dark reverse cycle and ad libitum access to food and water. All behavior experiments of PS19 mice were performed during daylight hours and carried out under Stanford University School of Medicine, Institutional Animal Care and Use Committee-approved guidelines.
The Fixed Location Dry Maze is also called DMP dry maze (Faizi, M., et al. Brain Behav 2, 142-154 (2012)). Experiments were performed at an animal facility at Stanford University (Palo Alto, Calif.). Mice were housed at a standard temperature (22±1° C.), in a reverse light-controlled environment (lights off from 8:30 am to 8:30 pm) with ad libitum access to food and water. Animals are group-housed with minimal enrichment such as shelter (paper towel tubes and nestlets). The experimenter remained blinded to the experimental groups throughout the entire study. […] The subjects were monitored by a video tracking system directly above maze, and the parameters were measured using the computer software Ethovision. […] Time in each quadrant was recorded and memory was assessed by the time spent in the target quadrant versus the other three quadrants. […]

[5] = tested on: PS19 mice; experiment: Hippocampal volume and NeuN-positive cell number; type: in vivo, mouse; conditions: 10 months old PS19 mice vs wild-type littermates
From the text: The neurodegeneration phenotype of PS19 mice was examined by measuring hippocampal volume and NeuN-positive cell number. […] (FIG. 4A) 10 months old PS19 mice have significant hippocampal volume loss compared to wild-type, which is absent in SSA-treated group. Left. Representative nissl staining of hippocampus from vehicle-treated WT, vehicle-treated PS19 and SSA-treated PS19 mice. ***, p<0.001, *, p<0.05 (two-tails unpaired t-test). Error bar, S.E.M. Scale bar, 500 um. (FIG. 4B) 10 months old PS19 mice have significant reduction of NeuN-positive cells compared to wild-type, which is absent in SSA-treated group. Left. Representative NeuN staining of hippocampus from vehicle-treated WT, vehicle-treated PS19 and SSA-treated PS19 mice. **, p<0.01 (two-tails unpaired t-test). Error bar, S.E.M. (FIG. 4C) NeuN number positively correlates with time spent in target quadrant in dry maze. p=0.0142 (linear regression).

[6] = PK analyses of salsalate (SSA) and salicylic acid (SA) in brain and plasma; type: in vivo, C57B6 mice; conditions: oral gavage, single bolus dose, mice
Method: SSA was administered to C57B6 mice via oral gavage as a single bolus dose. Mice were sacrificed at predetermined time points and plasma and brain tissue samples were harvested for analysis by PPL labs (Redwood City, Calif., USA). SSA and its metabolite SA were measured simultaneously using oxopropanoyloxy benzoic acid as an internal standard solution. To extract SSA/SA from brain, 200 μl of 50% Acetonitrile in 0.1% formic acid was added to 30-50 mg of cortical tissue, followed by homogenization and vortexing. After addition of 200 μl of the internal standard solution, the samples were centrifuged and the supernatants were transferred for injection. To measure SSA/SA in the plasma, 10 μl of plasma samples were mixed with 90 μl H2O and 100 μl of Internal Standard Solution, followed by centrifugation and injection. HPLC was performed using a C18 column following a gradient program (10% to 90% acetonitrile over a period of 6 min) with a flow rate of 0.4 ml/min. The injection volume was ˜5 μl. Mass spectrometry analyses were performed on 3200 Q TRAP system (AB SCIEX, Framingham, Mass. USA.) using an MQL algorithm.

[7] = tested on: PS19 mice; experiment: Western blot of ac-tau, p-tau, t-tau, p300 and ac-H2A in hippocampal/brain lysate; type: in vivo, mouse
From the text: The levels of ac-tau and phospho-tau in the hippocampal lysate of PS19 mice were examined (FIG. 5A).
Salsalate treatment in PS19 mice inhibits p300 activity and reduces tau acetylation. (FIG. 5A) Representative Western blot showing levels of ac-tau, p-tau, t-tau and GAPDH in brain lysate of PS19 mice treated with salsalate (SSA) or vehicle (veh). Wild-type (WT) littermates treated with vehicle and tau knockout (KO) mice were included as controls. (FIG. 5B) Quantification of ac-tau and p-tau levels in brain lysate of PS19 mice treated with vehicle or salsalate. ac-tau/t-tau and p-tau/t-tau in vehicle-treated group were set as 1. n=8. **, p<0.01 (two-tails unpaired t-test). Error bar, S.E.M. (FIG. 5C) Representative Western blot showing levels of p300, ac-H2A(K5), H2A and GAPDH in brain lysate of PS19 mice treated with salsalate (SSA) or vehicle (veh). (FIG. 5D) Quantification of p300 and ac-H2A levels in brain lysate of PS19 mice treated with vehicle or salsalate. p300/GAPDH and ac-H2A/H2A in vehicle-treated group were set as 1. n=8. *, p<0.05 (two-tails unpaired t-test). Error bar, S.E.M.

[8] = tested on: PS19 mice; experiment: NFT analysis by Gallyas silver staining; type: in vivo, mouse; conditions: female and male cohorts, age 10-11 months
From the text: FIGS. 12A and 12B provide silver staining results in neurites from neocortex and hippocampal regions for mice treated with SSA. Analysis of NFTs by Gallyas silver staining (FIG. 12A) and quantification of silver-positive cells in neurites from neocortex and hippocampal regions CA1 and CA3 (FIG. 12B) in vehicle-treated NTG mice and PS19 mice treated with vehicle or SSA. Scale bar, 250 μm (c, top); 25 μm (c, middle and bottom); n=8 mice (age 10-11 months) per genotype per treatment; *P<0.05, unpaired Student's t-test. Values are mean±s.e.m.
Prominent NFTs and dystrophic neurites, positive for Gallyas silver staining, were detected throughout the forebrains in PS19 mice (FIG. 12A).

[9] = tested on: AAV-K174Q-injected mice; experiment: SSA treatment of AAV-K174Q-injected mice; type: in vivo, mouse
From the text: FIG. 8 provides (Left) an immunoblot analysis of ac-H2AK5, H2A, p-tau (AT8 and PHF-1), t-tau (HT7) and GAPDH in mice infected with AAV-K174Q and treated with SSA or vehicle; and (Right) a graph depicting the results of a quantification of ac-H2AK5 and H2A. n=11 (vehicle) or 10 (SSA) mice; *P<0.05, unpaired Student's t-test; values are mean±s.e.m.
ELISA analysis of K174Q tau after SSA treatment. n=11 (vehicle) or 10 (SSA) mice; ns, not significant; P=0.3647; unpaired Student's t-test; values are mean±s.e.m.
FIG. 10 provides graphs showing that levels of PHF1-positive p-tau relative to t-tau, or AT8-positive p-tau normalized by t-tau or GAPDH, were not affected by SSA treatment. Levels of PHF-1-positive p-tau normalized to HT7 (left) or AT8-positive p-tau normalized to HT7 (middle) or GAPDH (right) after SSA treatment. n=11 (vehicle) or 10 (SSA) mice; ns, not significant, unpaired Student's t-test. Values are mean±s.e.m.
Nissl staining (left) and hippocampal volume (right) in mice expressing K174Q tau after SSA treatment. Scale bars, 500 μm; n=11 (vehicle) or 10 (SSA) mice; ns, not significant, unpaired Student's t-test. Values are mean±s.e.m.
For AAV-Tau (adeno-associated virus encoding Tau) injection experiments, only male mice were purchased from Jackson Laboratory with the same age and genetic background (C57BL/6) and used for all the experiments. The mice were housed in a pathogen-free barrier facility at UCSF with a 12-h light/dark cycle and ad libitum access to food and water. All behavior experiments were performed during daylight hours. All animal procedures were carried out under University of California, San Francisco, Institutional Animal Care and Use Committee-approved guidelines.
To determine if SSA's beneficial effects involve inhibition of ac-K174 in vivo. Two-month after injecting with AAV-K174Q, mice were treated with SSA daily as previously performed in PS19 mice. Ac-H2AK5 levels were reduced in the SSA-treated group, confirming inhibition of p300 by SSA (FIG. 8). […] Levels of PHF1-positive p-tau relative to t-tau, or AT8-positive p-tau normalized by t-tau or GAPDH, were also not affected by SSA treatment (FIG. 10).

[10] = brain lysate of PS19 mice, vs vehicle
[11] = hippocampal lysate of PS19 mice, vs vehicle-treated group
[12] = AAV-K174Q-injected mice, vs vehicle

| SMILES | AT8-positive phospho-tau level (p-tau/t-tau) [1] | Ac-tau level (ac-tau/t-tau) [1] | Tau-lowering effect with K174Q mutation [2] | p300 inhibition [3] | Memory retention in probe trial (time in target vs non-target quadrant) [4] | Spatial learning (learning curve) [4] | Hippocampal volume [5] | Number of NeuN-positive cells in hippocampal section [5] | Brain penetration [6] | t-tau levels in PS19 mice ([7]; PS19 mice) | p300 HAT activity as measured by levels of histone acetylation (ac-H2A/H2A) [7, 10] | p300 levels (p300/GAPDH) [7, 10] | AT-8 positive phospho-tau levels (p-tau/t-tau) [7, 11] | ac-tau levels (ac-tau/t-tau) [7, 11] | Number of Gallyas silver-positive neurons and neurites in cortex and hippocampus [8] | Ac-H2AK5 levels ([9]; AAV-K174Q-injected mice, SSA daily, vs vehicle) | AT8-positive p-tau normalized by t-tau or GAPDH [9, 12] | Hippocampal atrophy (hippocampal volume) [9, 12] | PHF1-positive p-tau relative to t-tau [9, 12] | Levels of t-tau (ELISA) ([9]; K174Q injected mice, vs vehicle treated controls) |
| --- | --- | --- | --- | --- | --- | --- | --- | --- | --- | --- | --- | --- | --- | --- | --- | --- | --- | --- | --- | --- |
| O=C(O)c1ccccc1O [salicylate, Salicylic acid] | reduced | significantly reduced by salicylate in a dose-dependent manner | abolished the tau-lowering effects | p300 inhibitor | – | – | – | – | – | – | – | – | – | – | – | – | – | – | – | – |
| O=C(Oc1ccccc1C(=O)O)c1ccccc1O [salsalate] | – | – | – | – | significantly rescued the deficit | did not rescue the learning deficit | did not show any hippocampal volume loss | did not show any significant difference compared to wild-type | readily penetrates into the brain | tau-lowering effects | significant reduction of p300 HAT activity | trend of reduction in p300 levels | trend of reduction in AT-8 positive phospho-tau levels, although the difference was not significant | significantly lower ac-tau levels | reduced the number of Gallyas silver-positive neurons and neurites | reduced | not affected | failed to prevent/reduce hippocampal atrophy | not affected | failed to reduce levels of t-tau |

Reference: patent US10004753B2, “Methods for treating tauopathy” (The J. David Gladstone Institutes, priority 2015, dated 2018)
